Test results from patent US20070207987A1, “Androgen Modulators” (WARNER-LAMBERT COMPANY LLC, priority 2004, published 2007).
Read-outs that look alike come from different tables or passages of the source.

What was measured:
hAR = target: T1, hAR (Homo sapiens, UniProt P10275); assay: Competitive binding of 3H-DHT to hAR extracts; settings: baculovirus/Sf9 hAR extract, 1 nM 3H-DHT, one hour at 4° C., mean of multiple tests
T1 construct: made in house; host or cells: baculovirus/Sf9 insect cells
T1 sequence (P10275 1-920): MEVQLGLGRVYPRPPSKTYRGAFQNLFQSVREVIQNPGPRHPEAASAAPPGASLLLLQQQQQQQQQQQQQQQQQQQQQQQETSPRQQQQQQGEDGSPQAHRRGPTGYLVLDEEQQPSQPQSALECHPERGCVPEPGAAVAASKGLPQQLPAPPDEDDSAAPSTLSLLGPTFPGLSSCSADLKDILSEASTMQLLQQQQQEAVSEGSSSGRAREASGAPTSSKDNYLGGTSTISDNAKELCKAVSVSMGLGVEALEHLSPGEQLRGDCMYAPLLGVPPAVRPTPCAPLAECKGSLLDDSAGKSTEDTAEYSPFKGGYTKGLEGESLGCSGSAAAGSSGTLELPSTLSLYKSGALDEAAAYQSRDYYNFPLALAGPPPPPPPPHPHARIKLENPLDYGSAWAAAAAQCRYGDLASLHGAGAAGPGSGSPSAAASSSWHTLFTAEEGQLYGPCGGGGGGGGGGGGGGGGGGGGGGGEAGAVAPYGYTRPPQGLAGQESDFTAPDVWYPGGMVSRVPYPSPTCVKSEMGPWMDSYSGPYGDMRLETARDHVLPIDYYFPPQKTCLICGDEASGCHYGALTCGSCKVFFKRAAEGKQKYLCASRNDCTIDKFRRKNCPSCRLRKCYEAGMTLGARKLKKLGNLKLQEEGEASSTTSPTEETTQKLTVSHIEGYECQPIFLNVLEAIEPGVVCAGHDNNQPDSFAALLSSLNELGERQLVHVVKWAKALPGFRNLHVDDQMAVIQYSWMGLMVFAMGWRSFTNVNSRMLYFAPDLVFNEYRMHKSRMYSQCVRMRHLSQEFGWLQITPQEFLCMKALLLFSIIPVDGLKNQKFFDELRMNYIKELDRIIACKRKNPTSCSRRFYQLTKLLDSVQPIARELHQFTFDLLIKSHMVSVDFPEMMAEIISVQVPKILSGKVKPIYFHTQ
Description: The compounds of Formula I have affinity for the androgen receptor. […] The description below describes how the assay was carried out.
Competitive binding analysis was performed on baculovirus/Sf9 generated hAR extracts in the presence or absence of different concentrations of test agent and a fixed concentration of ^3H-dihydrotestosterone (^3H-DHT) as tracer. This binding assay method is a modification of a protocol previously described (Liao S., et. al. J. Steroid Biochem. 20:11-17 1984). Briefly, progressively decreasing concentrations of compounds are incubated in the presence of hAR extract (Chang et al. P.N.A.S. Vol. 89, pp. […], 1992), hydroxylapatite, and 1 nM ^3H-DHT for one hour at 4° C. Subsequently, the binding reactions are washed three times to completely remove excess unbound ^3H-DHT. hAR bound ^3H-DHT levels are determined in the presence of compounds (i.e. competitive binding) and compared to levels bound when no competitor is present (i.e. maximum binding). Compound binding affinity to the hAR is expressed as the concentration of compound at which one half of the maximum binding is inhibited. Table I below provides the results that were obtained for selected compounds (reported data is the mean of multiple tests as shown below)

androgen receptor = androgen receptor (Homo sapiens, UniProt P10275); assay: AR antagonist cell assay (MMTV-luciferase reporter, MDA-MB453-MMTV clone 54-19); type: cell-based
Description: The compounds ability to antagonize the effects of androgen on the androgen receptor were determined in a whole cell assay as described immediately below.
Experimental Procedure for AR Antagonist Cell Assay
This cell line is a stable transfected cell line with MDA-MB453 cell background (a human breast tumor cell line expressing androgen receptor). A MMTV minimal promoter containing ARE was first cloned in front of a firefly luciferase reporter gene. Then the cascade was cloned into transfection vector pUV120puro. Electroporation method was used for transfecting MDA-MB-453 cell. Puromycin resistant stable cell line was selected.
Cell Culture Media and Reagents:
Culture medium: DMEM (high glucose, Gibco cat #: 11960-044), 10% FBS, and 1% L-glutamine
Plating medium: DMEM (phenol red free), 10% charcoal treated HyClone serum, 1% L-glutamine
Assay medium: DMEM (phenol red free), 1% charcoal treated HyClone serum, 1% L-glutamine, and 1% penicillin/streptomycin
3× luciferase buffer: 2% beta-mercaptoethanol, 0.6% ATP, 0.0135% luciferine in cell lysis buffer
• 1. Cells are maintained in culture medium, splitting cells when they reach 80-90% confluence • 2. To test compounds, 10,000 cells/well are plated to opaque 96 cell culture plate in 100 ul/well plating medium, culture for overnight at 37° C. in cell culture incubator • 3. Carefully remove plating medium, then add 80 ul/well of pre-warmed assay medium, add 10 ul/well testing compound (final concentration at) 1000 nM, 200 nM, 40 nM, 8 nM, 1.6 nM, and 0.32 nM), incubate at 37° C. for 30 minutes • 4. Add 10 ul/well freshly prepared DHT (final concentration at 100 pM) to each well, incubate at 37° C. for 17 hr (overnight) • 5.
The results are reported as the mean of multiple tests as described below (the numbers of tests are indicated in the footnote). N.D. denotes that the compound was not tested.

male Syrian hamsters = assay: Animal model for inhibition of sebum production (hamster ear); type: in vivo, Syrian hamster; settings: five days a week, 4 weeks; for % CE reduction / % WE reduction: vs vehicle control
Description: Luderschmidt et al. describes an animal model for testing whether compounds are capable of modulating sebum secretion. Arch. Derm. Res. 258, 185-191 (1977). This model uses male Syrian hamsters, whose ears contain sebaceous glands. The products of Examples 1 and 2 were screened in this model.
Testing for sebum inhibition was carried out in the following manner. Male Syrian hamsters aged 9 to 10 weeks were introduced into the laboratory environment and acclimated for 2 weeks prior to use in the study. Each group consisted of 5 animals and run in parallel with vehicle and positive controls. Prior to administration, a sufficient quantity each compound was dissolved in 1 mL of a solvent consisting of transcutol, propylene glycol, and ethanol (2/2/6 v/v/v) to achieve the final concentration described in Table III.
Animals were dosed topically twice daily, five days a week, for 4 weeks. Each dose consisted of 25 micro liters of vehicle control or drug. The dose was applied to the ventral surfaces of both the right and left ears. All animals were sacrificed approximately 18-24 hours after the final dose. The right ears were collected from each animal and used for sebum analysis.
The ears were prepped for HPLC analysis in the following manner. One 8 mm distal biopsy punch was taken, just above the anatomical “V” mark in the ear to normalize the sample area. The punch was pulled apart. The ventral biopsy surface (the area where the topical dose was directly applied to the sebaceous glands) was retained for testing and the dorsal surface of the biopsy punch was discarded.
Tissue samples were blown with N2 gas and stored at −80° C. under nitrogen until HPLC analysis. In addition to ear samples, an aliquot of each drug and vehicle (at least 250 ul) was also stored at −80° C. for inclusion in the HPLC analysis.
HPLC analysis was carried out on an extract of the tissue sample. Tissue samples were contacted with 3 ml of solvent (a 4:1 admixture of 2,2,4-trimethylpentane and isopropyl alcohol). The mixture was shaken for 15 minutes and stored overnight at room temperature, protected from light. The next morning 1 milliliter of water was added to the sample and shaken for 15 minutes. The sample was then centrifuged at approximately 1500 rpm for 15 minutes. Two ml of the organic phase (top layer) was transferred to a glass vial, dried at 37° C., under nitrogen, for approximately 1 hour, and then lyophilized for approximately 48 hours. The samples were then removed from the lyophilizer and each vial was reconstituted with 600 μl of solvent A (trimethylpentane/tetrahydrofuran (99:1). The samples were then recapped and vortexed for 5 minutes.
200 μl of each sample was then transferred to a pre-labeled 200 μl HPLC vial with 200 μL glass inserts. The HPLC vials were placed in the autosampler tray for the Agilent 1100 series HPLC unit. The Agilent 1100 HPLC system consisted of a thermostated autosampler, a quarternary pump, a column heater, and an A/D interface module. All components were controlled by Agilent ChemStation software. A Waters Spherisorb S3W 4.6×100 mm analytical column was maintained at 30° C. by the Agilent column heater unit. The HPLC autosampler was programmed to maintain the sample temperature at 20 C. throughout the run.
10 uL of each sample was injected in triplicate into the column. Two solvents were used for the solvent gradient. Solvent A was an admixture of trimethylpentane and tetrahydrofuran (99:1). Solvent B was ethylacetate. The gradient utilized is described in the table below: […]
The Sedex 75 Evaporative Light Scattering Detector (ELSD) was operated at 45° C. with a gain of 5, and N2 pressure maintained at 3.1 bar. Analog signal obtained by the instrument was sent to the Agilent A/D interface module where it was converted to a digital output. The conversion was based on a 10000 mAU/volt set point and the data rate was set at 10 Hz (0.03 min). […]

patients = settings: after 7 years of treatment; cited from earlier work

Compound | IC50 (hAR; ARB (IC50)) [nM] | IC50 (hAR; read-out: ARB (IC50)) [nM] | melting point [°C] | also measured
CC1(C)COC(=O)C1Oc1ccc(C#N)c(C(F)(F)F)c1 (racemic) [Example 1, (±)-4-(4,4-Dimethyl-2-oxo-tetrahydro-furan-3-yloxy)-2-trifluoromethyl-benzonitrile)] | 122 |  |  | IC50 (androgen receptor): 60 nM; Sum of WE & WE (male Syrian hamsters; 1% w/v topical twice daily): 128; % CE reduction (male Syrian hamsters; 1% w/v topical twice daily): 55%; % WE reduction (male Syrian hamsters; 1% w/v topical twice daily): 73%
N#Cc1ccc(OC2CCOC2=O)cc1C(F)(F)F (racemic) [Example 4, (±)-4-(2-Oxo-tetrahydro-furan-3-yloxy)-2-trifluoromethyl-benzonitrile] |  | 5850 | 120 | 
N#Cc1ccc(OC2CCOC2=O)cc1C(F)(F)F (single isomer, unassigned; (+)) [Example 5, (+)-4-(2-Oxo-tetrahydro-furan-3-yloxy)-2-trifluoromethyl-benzonitrile] |  | 9800 | 107 to 108 | 
N#Cc1ccc(OC2CCOC2=O)cc1C(F)(F)F (single isomer, unassigned; (-)) [Example 6, (−)-4-(2-Oxo-tetrahydro-furan-3-yloxy)-2-trifluoromethyl-benzonitrile] |  | 1670 |  | 
CC1(C)COC(=O)[C@@H]1Oc1ccc(C#N)c(C(F)(F)F)c1 [Example 2, (R)-(+)-4-(4,4-Dimethyl-2-oxo-tetrahydro-furan-3-yloxy)-2-trifluoromethyl-benzonitrile] | 71 |  | 89.9 to 90.7 | IC50 (androgen receptor): 47 nM; Sum of WE & WE (male Syrian hamsters; 3% w/v topical twice daily): 171; % CE reduction (male Syrian hamsters; 3% w/v topical twice daily): 79%; % WE reduction (male Syrian hamsters; 3% w/v topical twice daily): 92%
CC1(C)COC(=O)[C@H]1Oc1ccc(C#N)c(C(F)(F)F)c1 [Example 3, (S)-(−)-4-(4,4-Dimethyl-2-oxo-tetrahydro-furan-3-yloxy)-2-trifluoromethyl-benzonitrile] | > 10000 |  | 83.1 to 84.4 | IC50 (androgen receptor; inhibition of induction by 100 pM DHT, 17 hr, mean of multiple tests, read-out: ARCell (IC50)): > 1000 nM
NCCCC(O)(P(=O)(O)O)P(=O)(O)O [alendronate] |  |  |  | Increase in spinal BMD (patients): ≤ 11%
